Source: patent US12503455B2, “Nucleic acid-binding photoprobes and uses thereof” (Arrakis Therapeutics, Inc., priority 2017, dated 2025)
Each block holds one compound with its values, some of them ahead of it.

Key:
Aptamer 21 [1] = experiment: LC-MS analysis of cross-linked RNA; assay type: binding
Description: (§1) Folded RNA (1.33 μM) was incubated with or without the photoaffinity probe (20 μM) in total 100 μL of buffer (20 mM TrisHCl pH 8, 100 mM KCl, 3 mM MgCl2) with 2% DMSO for 30 min at 37° C. to allow binding to come to equilibrium. The sample was then irradiated with long wave UV light (˜365 nm) for 30 min in a UV crosslinker (Fisher Scientific).
The RNA was then precipitated by adding 10 μL of 3 M sodium acetate pH 5 and 275 μL ethanol, cooling to −80° C. for 1 h, and then centrifuging at 20,500×g at 4° C. for 30 min. The RNA pellet was washed with 500 μL of 70% ethanol, air dried for 5 min, and then resuspended in 120 μL of water.
50 μL of RNA sample was injected onto Clarity 2.6 μm Oligo X-T column (50*2.1 mm, 60° C.), and the gradient and flowrate were as follows: 95% A/5% B to 75% A/25% B over 5 min, flowrate: 400 μL/min; 75% A/25% B to 30% A/70% B over 1 min, flowrate: 400 μL/min; 100% D over 1 min, flowrate: 500 μL/min; 95% A/5% B over 2 min, flowrate: 500 μL/min (A: 1% HFIPA (hexafluoroisopropyl alcohol), 0.1% DIEA (diisopropylethylamine), 1 μM EDTA (ethylenediamine tetraacetic acid) in H2O; B: 0.075% HFIPA, 0.0375% DIEA, 1 μM EDTA in 65/35 MeCN/H2O; D: 40/40/20% MeOH/MeCN/H2O); The LCMS instrument was a Thermo Finnigan LTQ, and ProMass deconvolution software coupled with Xcaliber were used for all data processing.

Aptamer 21 [2] = experiment: Surface plasmon resonance (SPR) binding to Aptamer 21; details: for binding to Aptamer 21 by SPR, separated enantiomers: 10 uM
Source text: Surface plasmon resonance (SPR) may be used to screen ligands and hook and click constructs for binding to a target RNA of interest. SPR is especially useful for monitoring biomolecular interactions in real time. Typically, target species and unrelated control are immobilized to a sensor chip, then analytes (compounds/fragments) are flowed over the surface. Binding of the compound to target species results in increase of SPR signal (association phase). Washing away bound compound with buffer results in a decrease of SPR signal (dissociation phase). Fitting of sensorgrams recorded at different compound concentrations is performed to an appropriate interaction model. The method allows extraction of kinetic parameters (ka, kd→KD). Requirements/limitations include that the ka/kd values be in reasonable ranges; and the target size must not be too large (<100 kDa). It is an excellent method to screen fragments and profile or validate hits. BC4000 may be used for primary screening (up to 4,000 data pts/week). Biacore T200 is suitable for hit profiling and validation.
In the PEARL-seq context, SPR allows monitoring binding of “hooks” to DNA/RNA aptamers. The target species is immobilized to sensor chip, analytes (i.e. hooks) are flowed over surface (association phase), DNA/RNA aptamer is flowed over surface (plateau phase), competitor compound is washed over surface (dissociation phase), thus yielding binding data.
Experiments were performed on a MASS-2 (Sierra Sensors) at 25° C. A high capacity amine chip was equilibrated with PBS. The chip was conditioned with alternating injections of 10 mM HCl and 10 mM NaOH in 1 M NaCl. The carboxymethylated dextran of the surface of the amine chip was activated for 7 minutes at a flow rate of 10 μL/min using a 1:1 volume ratio of 0.4 M 1-ethyl-3-(3-dimethylaminopropyl) carbodiimide (Sierra) and 0.1 M N-hydroxysuccinimide (Sierra). Neutravidin (70 μg/mL, Thermofisher) was injected over the activated surface for 10 minutes at a flow rate of 10 μl/min. Excess activated groups were blocked by an injection of 1 M ethanolamine, pH 8.5 (Sierra) for 7 minutes at a flow rate of 10 μl/min. A final injection of 10 mM NaOH in 1 M NaCl for 7 minutes at 10 μl/min was used to remove any unbound material to the chip. The immobilization reaction typically yielded approximately 12,000 resonance units (RU) of neutravidin. At least one spot in a channel was not injected with RNA and was used as a background control. Unrelated RNA was also used as a background control.
A 1 μM sample of biotin-aptamer 21 was prepared in RNAse free water, heated to 95° C. for 3 minutes, cooled on ice for 4 minutes, diluted with an equal volume 2× folding buffer (40 mM Tris-HCl, pH 8.0, 6 mM MgCl2, 200 mM KCl), and incubated at 37° C. for 30 minutes. The final concentration of RNA was 0.5 μM.
The MASS-2 was primed 2 times with 20 mM Tris-HCl, pH 8.0, 3 mM MgCl2, 100 mM KCl (Capture Buffer). RNA was injected over the neutravidin surface for 7 minutes at a flow rate of 10 μl/min. Capture levels typically reached approximately 3500-4500 of resonance units of aptamer 21.
Compounds were diluted 2-fold in 100% DMSO at a starting concentration of 500 μM.
The MASS-2 was primed 2 times with 20 mM Tris-HCl, pH 8.0, 3 mM MgCl2, 100 mM KCl, 1% DMSO (running buffer). Prior to testing compounds 3 injections of running buffer were used to equilibrate the sensor surface. […]

Aptamer 21 [3] = experiment: Competition between Aptamer 21 photoprobes and RNA-binding ligands (RT pausing)
Description: Aptamer 21 was either incubated with probe alone (ARK-581) or probe plus a 10-fold excess of RNA-binding ligand.
Both ARK-852 and ARK-139 inhibit the photocrosslinking of probes to Aptamer 21.
as §1, with “RNA (1” for “RNA (1.33”, “with” for “with or without”, “probe (10” for “probe (20”, “total 25” for “total 100”, “with 2.5%” for “with 2%”
(§2) A 3.75 μL aliquot of 10 μM reverse transcription primer was added to the cross-linked RNA sample, which was then incubated for 5 min at 65° C. and then cooled on ice. The sample was then diluted to a final volume of 60 μL and final buffer concentration of 1× Protoscript-II buffer (New England Biolabs), 0.5 mM dNTPs, 10 mM DTT, 0.4 U/μL RNase Inhibitor (New England Biolabs), and 10 U/μL Protoscript-II (New England Biolabs). The reaction was incubated at 45° C. for 2 h, 65° C. for 20 min, and then 4° C.
(§3) The RNA was hydrolyzed by the addition of 4.8 μL of 2.5 M NaOH and heating at 95° C. for 5 min. The reaction was quenched by the addition of 0.9 μL of acetic acid. The cDNA was precipitated by the addition of 6.6 μL of 3 M sodium acetate pH 5 and 181 μL ethanol, cooling to −80° C. for 1 h, and then centrifuging at 20,500×g at 4° C. for 30 min. The cDNA pellet was washed twice with 500 μL of 70% ethanol and then air dried for 5 min.
(§4) The cDNA pellet was resuspended in 12 μL of 1×TBE-urea sample loading buffer (Bio-Rad) and heated to 95° C. for 5 min. The sample was then run on a pre-cast 8.6×6.7 cm TBE-urea 10% PAGE gel (Bio-Rad) at 120 V until the lower bromophenol blue dye reached the bottom of the gel. The gel was stained with 1×SYBR-gold (Invitrogen) in 1×TBE buffer at room temperature for 20 min covered from light. The gel fluorescence was imaged on an Azure c600 instrument.

Aptamer 21 [4] = experiment: Reverse transcriptase pausing (drop-off) gel assay of photo-crosslinking to Aptamer 21; assay type: binding; details: FIG. 52
Description: A solution of RNA at 2 to 5 μM in nuclease-free water was heated to 95° C. for 3 min and then cooled on ice for 2 min. This solution was diluted with ½ volume of 3×RNA folding buffer (60 mM TrisHCl pH 8, 300 mM KCl, 9 mM MgCl2) and incubated at 37° C. for 20 min. Folding was carried out immediately before use of the RNA in each experiment. In cases where a mixture of RNA molecules was used in vitro the RNAs were folded separately and then combined prior to the probing experiment.
as §1, with “RNA (1” for “RNA (1.33”, “with” for “with or without”, “probe (10” for “probe (20”, “total 25” for “total 100”, “with 2.5%” for “with 2%”
as §2, §3, §4

Compound: COC(=O)C1=C(COCc2cn(CCOCCOCCNC(=O)c3ccc(N=[N+]=[N-])cc3)nn2)NC(c2ccncc2)=NC1c1ccc(F)cc1Cl (stereo not shown) [ARK-581]
covalent modification of the RNA by LC-MS (Aptamer 21 [1]): 10%

binding to Aptamer 21 by SPR (Aptamer 21 [2]): SPR-active
inhibition of photocrosslinking of ARK-581 to Aptamer 21 (Aptamer 21 [3]; 10-fold excess of RNA-binding ligand over probe): efficiently inhibited
inhibition of photocrosslinking of probes to Aptamer 21 (RT pausing competition assay) (Aptamer 21 [3]; FIG. 65): inhibit
Compound: Cc1ccc(C(=O)N2Cc3ccccc3C[C@H]2C(N)=O)cc1NCc1c(F)ccc(O)c1F [ARK-852]

binding to Aptamer 21 by SPR, separated enantiomers (Aptamer 21 [2]): did not bind
Compound: COC(=O)C1=C(COCc2cn(CCOCCOCCO)nn2)NC(c2ccncc2)=N[C@@H]1c1ccc(F)cc1Cl [ARK-702, (S)-methyl 4-(2-chloro-4-fluorophenyl)-6-(((1-(2-(2-(2-hydroxyethoxy)ethoxy)ethyl)-1H-1,2,3-triazol-4-yl)methoxy)methyl)-2-(pyridin-4-yl)-1,4-dihydropyrimidine-5-carboxylate]

shortened sequences produced in PEARL-seq reverse transcriptase pausing gel assay (Aptamer 21 [4]): numerous shortened sequences
Compound: Cc1ncccc1C(=O)n1ccnc1 [NAI, 2-methylnicotinic acid imidazolide, reference compound]

binding to Aptamer 21 by SPR, separated enantiomers (Aptamer 21 [2]): did bind
Compound: COC(=O)C1=C(COCc2cn(CCOCCOCCO)nn2)NC(c2ccncc2)=N[C@H]1c1ccc(F)cc1Cl [ARK-701, (R)-methyl 4-(2-chloro-4-fluorophenyl)-6-(((1-(2-(2-(2-hydroxyethoxy)ethoxy)ethyl)-1H-1,2,3-triazol-4-yl)methoxy)methyl)-2-(pyridin-4-yl)-1,4-dihydropyrimidine-5-carboxylate]
